Test results from ChEMBL document CHEMBL4041504, “Differential characterization using readily accessible NMR experiments of novel N- and O-alkylated quinolin-4-ol, 1,5-naphthyridin-4-ol and quinazolin-4-ol derivatives with antimycobacterial activity” (Eur J Med Chem, 2017).
In brackets after ≈: the same amount, converted by molar mass.

Key:
[1] = test system: HepG2; assay: Cytotoxicity against human HepG2 cells assessed as reduction in cell viability after 48 hrs by CellTiter Glo assay; format: cell-based; conditions: HepG2, 48 h
[2] = Kinetic aqueous solubility of the compound by chemiluminescent nitrogen detection assay; format: physicochemical; conditions: read-out: Kinetic_solubility
[3] = Lipophilicity, log D of the compound at pH 7.4 by chromatographic method; format: physicochemical; conditions: buffer
[4] = Permeability of the compound by PAMPA; format: physicochemical; conditions: read-out: permeability
[5] = test system: Mycobacterium tuberculosis; assay: microbe, parasite or virus in culture; conditions: H37Rv ATCC 25618, 144 h
Description: Antimycobacterial activity against Mycobacterium tuberculosis H37Rv ATCC 25618 after 6 days by resazurin dye based assay

SMILES	IC50 [1] [µM]	solubility kinetic [2] [µM]	chromatographic logD [3]	Papp [4] [×10⁻⁶ cm/s]	MIC [5] [µM]
Cc1cc(C)cc(NC(=O)COc2ccnc3ccccc23)c1	> 100	59 (≈ 18.1 µg/mL)	5.03	46	> 80
COc1ccc2ncn(CC(=O)Nc3cc(C)cc(C)c3)c(=O)c2c1	> 100	8 (≈ 2.7 µg/mL)	4.5	–	> 250
Cc1cc(C)cc(NC(=O)Cn2cnc3ccccc3c2=O)c1	79.4	20 (≈ 6.15 µg/mL)	4.29	60	> 250
COc1ccc2nc(C)cc(OCC(=O)Nc3cc(C)cc(C)c3)c2n1	> 100	19 (≈ 6.68 µg/mL)	5.57	51	3.8 (≈ 1.34 µg/mL)
Cc1cc(C)cc(NC(=O)Cn2ccc(=O)c3ccc(Cl)cc32)c1	100	86 (≈ 29.3 µg/mL)	4.39	26	> 250
COc1ccc2nc(C)nc(OCC(=O)Nc3cc(C)cc(C)c3)c2c1	> 100	3 (≈ 1.05 µg/mL)	5.59	37	1.25 (≈ 0.439 µg/mL)
NNC(=O)c1ccncc1 [ISONIAZID]	–	–	–	–	3.6 (≈ 0.494 µg/mL)
COc1ccc2c(c1)c(=O)ccn2CC(=O)Nc1cc(C)cc(C)c1	> 100	30 (≈ 10.1 µg/mL)	3.72	19	> 250
COc1ccc2nccc(OCC(=O)Nc3cc(C)cc(C)c3)c2c1	50.1	51 (≈ 17.2 µg/mL)	5.3	28	10 (≈ 3.36 µg/mL)
COc1ccc2nc(C)cc(OCC(=O)Nc3cc(C)cc(C)c3)c2c1	20	–	–	–	1.9 (≈ 0.666 µg/mL)
Cc1cc(C)cc(NC(=O)Cn2ccc(=O)c3ccccc32)c1	63.1	34 (≈ 10.4 µg/mL)	3.54	45	> 250
COc1ccc2nc(C)n(CC(=O)Nc3cc(C)cc(C)c3)c(=O)c2c1	> 100	74 (≈ 26 µg/mL)	4.77	58	250 (≈ 87.9 µg/mL)
